The source of these data is patent publication US20090123389A1, “Methods for modulating Th17 cell development in the treatment and prevention of cellulite” (priority 2007, published 2009).

Data set [1] has as its system mTOR. The data set can be described thus: Signaling downstream of mTOR in fibroblasts. It is filed as cell-based.
In data set [2] the test system is splenocytes. The data set can be described thus: In vivo activation of the AAR pathway in splenocytes of treated mice. Set-up: species or system C57B/6 mice. Conditions: 2.5 μg HF i.p., 6 hours post injection. The method, then:
FIG. 20A is a graph depicting splenocytes from control- and HF-treated mice. C57B/6 mice were injected i.p. with vehicle (DMSO) or 2.5 μg HF. Spleens were harvested 6 hours post injection, red blood cells were lysed and total splenocytes were counted. Data are presented as mean cell counts±SD from 2 mice per group.
FIG. 20C is a graph depicting eIF2α expression in control- and HF-treated mice. Splenocytes from mice injected with DMSO or HF as above were harvested 6 hours post injection. Red blood cells were lysed and immunoblotting was performed on whole cell extracts for phosphorylated or total eIF2α as indicated.
FIG. 20D is a graph depicting the results of quantitative real-time PCR (qPCR) experiments performed for AAR-associated gene expression (Asns, Gpt2, eIF4Ebp1) using cDNA generated from splenocytes of mice injected with DMSO or HF as above. Expression of AAR-associated genes were normalized to Hprt levels and data are presented as mean relative expression from duplicate samples±SD.

The subject of data set [3] is radiation induced fibrosis. Conditions: IP, 1-5 μg/mouse; cited from earlier work.
Data set [4] relates to Jurkat T cells. The data set can be described thus: Apoptosis of Jurkat T cells (Annexin V / PI, flow cytometry). The conditions noted are these: 100 nM HF, cultured for 30 hours. It is filed as cell-based. The procedure: The non-specific cytoxicity of HF in both normal and transformed T-cells at high doses was evaluated. Anti-CD3/anti-CD28 activated primary T cells were harvested 6 days after activation and cultured in the presence of IL-2 with or without HF (100 nM). As a positive control, some T cells were cultured without IL-2 to induce apoptosis (FIG. 3A). Jurkat T cells, a transformed T cell leukemia line, were cultured in complete medium with or without HF (100 nM) as indicated (FIG. 3B). Both primary and Jurkat T cells were cultured for 30 hours and programmed cell death, i.e. apoptosis, was determined by Annexin V staining and propidium iodide (PI) uptake and cells were analyzed by flow cytometry. The percent of apoptotic T cells at each time point was plotted and was defined as Annexin V^+ PI^−. […] In further experiments, titrating amounts of HF were added to primary T cells and apoptosis was determine as above at the indicated time points. At 100 nM HF, but not 30 nM or lower, generalized T-cell apoptosis was observed (FIG. 3C).

In data set [5] the test system is dermal fibroblasts. The data set can be described thus: Spreading and contractile activity of dermal fibroblasts on Type I collagen. It is filed as cell-based, human. The procedure:
Inhibitors of cellulite formation are also identified by observing the effect of the test compound on fibroblast behavior. In this assay, a control population of primary dermal fibroblasts are cultured in a matrix of Type I collagen, mimicking the interstitial matrix of the dermis and hypodermis, such that the fibroblasts attach to the substratum and spread, exerting contractile force on the surrounding interstitial matrix. In the test population, primary dermal fibroblasts are incubated on a matrix of Type I collagen in the presence of a test compound for a predetermined length of time, e.g., 24 hrs. The ability of the dermal fibroblasts to attach to the substratum and spread is then observed.
An assay is provided to test the effects of HF and other selective Th17 inhibitors on the behavior of cells likely to provide the basis for the structural features of cellulite—dermal fibroblasts and myofibroblasts. When human primary dermal fibroblasts are cultured in a matrix of Type I collagen, mimicking the interstitial matrix of the dermis and hypodermis, they attach to the substratum and spread, exerting contractile force on the surrounding interstitial matrix. […] The ability of the dermal fibroblasts to attach and spread when cultured in the presence of the Th17 inhibitor is detected.

In data set [6] the test system is fibrosis. The conditions noted are these: in vitro; cited from earlier work.
Data set [7] has as its system Xenopus feeding stage tadpoles. Nature of the data set: Toxicity in Xenopus feeding stage tadpoles. Conditions: 400 nM HF, treatment for 7 days.
Data set [8] relates to T cell-mediated inflammation. The conditions noted are these: oxazolone-induced; cited from earlier work.
Data set [9] deals with TSK mouse. Conditions: 1 μg HF/mouse IP daily; cited from earlier work.

Take `O=C(CC1NCCCC1O)Cn1cnc2cc(Br)c(Cl)cc2c1=O` (racemic) [HF, 7-bromo-6-chloro-3-[3-(3-hydroxy-2-piperidinyl)-2-oxopropyl]-4(3H)-quinazolinone]: in data set [1], the “signaling downstream of mTOR in fibroblasts” value is given as “did not inhibit”. The “eIF2α phosphorylation and AAR-associated gene expression in splenocytes of treated mice” value in [2] was “rapidly activates”. In [3], the radiation induced fibrosis result is given as “prevented radiation induced fibrosis” and the “toxic effect in mice” value is listed as “without evident toxic effect”. In data set [4], the “apoptosis of Jurkat T cells” value is “significant apoptosis”. The “spreading and contractile activity of dermal fibroblasts” value in data set [5] was “prevents the spreading and contractile activity”. Moreover, in [6], the “concentrations at which HF acts as an inhibitor of fibrosis” value is 1 to 200 nM. Besides, in data set [7], the “toxic effects in tadpoles” value is “does not have detectable toxic effects”. In data set [8], the “T cell-mediated inflammation (delayed-type hypersensitivity)” value was “inhibits this T cell-mediated inflammation”. For the same compound, in data set [9], the normal skin thickness result is on record as “did not reduce”, the “skin thickness of TSK mouse” value was “reduced skin thickness of a TSK mouse to that of a normal mouse” and the “toxic effects in TSK model” value is “no toxic effects”.
